From the NIST ThermoML archive (doi:10.1021/je0500577)

Assays:
[1] = xn = mol fraction of the nth substance listed
[2] = for surface tension liquid-gas: Drop volume

BrC1CCCCC1 [bromocyclohexane] + C1CCOCC1
surface tension liquid-gas [mN/m], [1], Drop volume
Conditions	298.15 K	313.15 K
x1 = 0.0539	27.62	25.95
x1 = 0.098	27.89	26.32
x1 = 0.1908	28.45	27.01
x1 = 0.296	29.11	27.7
x1 = 0.3969	29.75	28.35
x1 = 0.4993	30.43	28.98
x1 = 0.6178	31.23	29.74
x1 = 0.712	31.86	30.43
x1 = 0.8067	32.49	31.23
x1 = 0.8816	32.95	31.88
x1 = 0.9568	33.39	32.57
x1 = 1	33.63	32.98

C1CCOC1 [tetrahydrofuran] + BrC1CCCCC1
[1], Drop volume, x2 = 0
Conditions	surface tension liquid-gas [mN/m]
298.15 K	27.12
313.15 K	25.24

CC1CCC(C)O1 (stereo not drawn) [2,5-dimethyltetrahydrofuran] + BrC1CCCCC1
surface tension liquid-gas [mN/m], [1]
Conditions	298.15 K	313.15 K
x2 = 0	22.93	21.5
x2 = 0.0692	23.3	21.71
x2 = 0.0908	23.42	21.83
x2 = 0.1916	24.03	22.52
x2 = 0.2942	24.54	23.16
x2 = 0.3981	24.9	23.73
x2 = 0.4712	25.17	24.06
x2 = 0.5994	25.96	24.84
x2 = 0.6382	26.39	25.15
x2 = 0.701	–	25.74
x2 = 0.8032	29.16	–
x2 = 0.8035	–	27.31
x2 = 0.8552	30.35	–
x2 = 0.8558	–	28.4
x2 = 0.8996	31.47	–
x2 = 0.9378	32.34	30.81

ClC1CCCCC1 [chlorocyclohexane] + CC1CCCO1
surface tension liquid-gas [mN/m], [1], Drop volume
Conditions	298.15 K	313.15 K
x1 = 0.0434	–	23.23
x1 = 0.0471	24.85	–
x1 = 0.0868	–	23.44
x1 = 0.0884	25.11	–
x1 = 0.1719	–	23.93
x1 = 0.1722	25.63	–
x1 = 0.2652	26.2	–
x1 = 0.2653	–	24.47
x1 = 0.3536	–	25
x1 = 0.3605	26.81	–
x1 = 0.4587	27.44	–
x1 = 0.4591	–	25.65
x1 = 0.5615	28.15	–
x1 = 0.5618	–	26.31
x1 = 0.6654	28.86	–
x1 = 0.6677	–	27.03
x1 = 0.7734	–	27.78
x1 = 0.7761	29.62	–
x1 = 0.8805	–	28.58
x1 = 0.8856	30.34	–
x1 = 0.9404	–	29
x1 = 0.9418	30.7	–
x1 = 1	31.05	29.44

C1CCOCC1 [tetrahydropyran]
[2]
Conditions	surface tension liquid-gas [mN/m]
298.15 K	27.29
313.15 K	25.46

Conditions	mass density [kg/m3]
[2], 298.15 K, 101.33 kPa, Liquid	878.82

CC1CCC(C)O1 (stereo not drawn) [2,5-dimethyltetrahydrofuran] + ClC1CCCCC1
surface tension liquid-gas [mN/m], [1], Drop volume
Conditions	298.15 K	313.15 K
x2 = 0	22.93	21.5
x2 = 0.054	–	21.87
x2 = 0.0582	23.29	–
x2 = 0.0998	–	22.15
x2 = 0.1048	23.51	–
x2 = 0.1988	24	–
x2 = 0.202	–	22.76
x2 = 0.3031	24.46	–
x2 = 0.3037	–	23.3
x2 = 0.4025	24.96	–
x2 = 0.4049	–	23.78
x2 = 0.5047	25.45	–
x2 = 0.509	–	24.29
x2 = 0.6055	–	24.87
x2 = 0.6071	25.99	–
x2 = 0.7039	–	25.58
x2 = 0.7088	26.75	–
x2 = 0.8075	–	26.61
x2 = 0.8097	27.83	–
x2 = 0.9009	29.1	–
x2 = 0.9065	–	27.94
x2 = 0.9479	–	28.54
x2 = 0.9482	29.98	–
